{"source": "patent US20060270643A1", "about": "“Hyfroxyflutamide induced pathways related to androgen receptor negative prostate cancer cells” (priority 2002, published 2006)", "key": {"[1]": {"tested_on": "cyclin D1 promoter (−1745D1-Luc)", "assay": "Cyclin D1 promoter luciferase reporter assay in DU145 cells", "format": "cell-based, human", "conditions": "10^−6 M HF or 30 ng/ml EGF", "method": "(§1) 11. […] (A) DU145 cells were treated with HF (1 μM), or EGF (10 ng/ml), or ethanol vehicle for 12 hours after the serum starvation. Cells were lysed and blotted with anti-cyclin D1 antibody. (B) DU145 cells were serum starved for 24 hours and then co-transfected DN Ras or DN Raf together with […] Luc reporter with SuperFect (Qiagen). After 4 hours, the medium was changed to normal medium (10% serum) for 18 hours and then changed to serum starvation condition for another 24 hours and then treated with HF, EGF, or ethanol vehicle control. Cells were lysed for luciferase activity analysis.\n197. DU145 cells were obtained from American Type Culture Collection and cultured in Dubecco's modified Eagles's medium (DMEM) supplemented with 10% fetal bovine serum (FBS). Cells (1×10^5) were seeded in 35 mm plates and transfected with the SuperFect transfection reagent (Qiagen, Chatworth, Calif.). After 4 hours the media were changed to serum-free DMEM media for 24 hours. Thereafter, the cells were treated with HF, EGF, and vehicle for 18 hours and then lysed for luciferase assay. Luciferase activity was normalized for taansfection efficiency using pRL-TK as an internal control. Luciferase assays were performed using dual-luciferase reporter system (Promega, Madison, Wis.)."}, "EGFR": {"target": "T1, EGFR (Homo sapiens, UniProt P00533)", "T1 construct": "endogenous in cells; host or cells: DU145", "T1 sequence (P00533 25-1210)": "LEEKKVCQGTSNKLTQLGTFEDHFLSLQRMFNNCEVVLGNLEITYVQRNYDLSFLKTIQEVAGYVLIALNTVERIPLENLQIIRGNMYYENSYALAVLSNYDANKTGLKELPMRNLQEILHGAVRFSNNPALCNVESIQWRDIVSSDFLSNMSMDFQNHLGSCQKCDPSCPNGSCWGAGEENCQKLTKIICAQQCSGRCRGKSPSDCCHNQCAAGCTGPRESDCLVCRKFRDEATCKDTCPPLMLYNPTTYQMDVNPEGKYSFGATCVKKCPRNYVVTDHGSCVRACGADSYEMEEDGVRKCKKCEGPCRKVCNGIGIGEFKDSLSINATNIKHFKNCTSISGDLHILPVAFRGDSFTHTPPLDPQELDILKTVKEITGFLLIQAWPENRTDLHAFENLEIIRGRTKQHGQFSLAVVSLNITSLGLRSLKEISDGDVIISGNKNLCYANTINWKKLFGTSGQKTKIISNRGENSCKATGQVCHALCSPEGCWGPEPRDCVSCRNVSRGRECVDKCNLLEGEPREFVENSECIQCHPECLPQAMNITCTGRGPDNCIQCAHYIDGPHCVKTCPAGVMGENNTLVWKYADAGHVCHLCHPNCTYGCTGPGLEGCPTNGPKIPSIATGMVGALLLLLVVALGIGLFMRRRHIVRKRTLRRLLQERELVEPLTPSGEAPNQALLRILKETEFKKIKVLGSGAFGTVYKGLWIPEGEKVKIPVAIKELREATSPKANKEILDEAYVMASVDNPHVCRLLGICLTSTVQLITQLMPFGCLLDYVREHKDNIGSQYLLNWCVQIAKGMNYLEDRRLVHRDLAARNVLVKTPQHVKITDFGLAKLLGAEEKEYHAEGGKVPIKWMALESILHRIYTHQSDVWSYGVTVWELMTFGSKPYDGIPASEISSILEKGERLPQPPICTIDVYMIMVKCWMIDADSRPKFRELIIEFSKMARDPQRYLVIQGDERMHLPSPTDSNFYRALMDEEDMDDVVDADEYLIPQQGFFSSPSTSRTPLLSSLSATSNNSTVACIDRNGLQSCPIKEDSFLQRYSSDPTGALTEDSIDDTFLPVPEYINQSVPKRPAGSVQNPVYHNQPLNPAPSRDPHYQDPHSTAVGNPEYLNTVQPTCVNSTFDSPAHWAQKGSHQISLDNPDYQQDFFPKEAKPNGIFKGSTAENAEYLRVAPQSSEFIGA", "assay": "EGFR immunoprecipitation and anti-phosphotyrosine immunoblot in DU145 cells", "format": "cell-based", "conditions": "1 μM HF, 20 min", "method": "9. […] After 15 min treatment, cells were lysed and immunoblotted with anti-phospho ERK1/2 and antiERK1/2 antibodies. […] EGFR was immunoprecipitated from the cell lysates, and their phosphotyrosine level was determined by anti-phosphotyrosine antibody. All the results were visualized using enhanced chemiluminescence."}, "[2]": {"tested_on": "association between Ras and Raf", "assay": "Ras-Raf immunoprecipitation assay in DU145 cells", "format": "cell-based, human", "conditions": "lysates of treated DU145 cells; 1 μM HF, 10 ng/ml EGF, 1 μM 9-cis retinoic acid", "method": "8. […] (A) DU145 cells were treated with ethanol (lane 1), 10 ng/ml EGF (lane 2), 1 μM 9-cis retinoic acid (lane 3), and 1 μM HF (lane 4) after 24 hour serum starvation. Cells were lysed and 300 μg of total protein were immunoprecipitated with anti-Ras antibody, pulled-down by a protein A/G agarose beads, and detected with an anti-Raf antibody. (B) DU145 cells were transfected with pCDNA3.1 or pCDNA3.1-Ras N17 as indicated. After 24 hours serum starvation, the cells were treated with different ligands for 20 min, and then harvested. Western blots were performed with antibodies against phosphoERK1/2 and ERK1/2. The density of phospho-ERK1/2 shown as Optical Density (OD) were determined by the Versa Doc Imaging System (Bio-Rad) and quantified by Quantity One software.\n200. Serum-stared and treated DU145 cells were lysed with RIPA buffer for 30 min on ice. Lysates were then centrifuiged at 12,000 g for 10 min at 4° C. and protein concentrations were determined by the Bradford assay. 500 μg of cell lysates were incubated for 4 hours with either anti-Ras or anti-EGFR antibody (1/100, Santa Cruz Biotechnology) to the protein-antibody mixture and then added in 20 μl of protein A/G plus-agarose (Santa Cruz Biotechnology) for another 4 hours incubation with constant rotation. The immunoprecipitates were washed four times with cold PBS, resolved by SDS-PAGE, and immunoblotted by anti-Raf-1 antibody, or anti-phospho-tyrosine monoclonal antibody (Oncogene Research, Calbiochem, La Jolla, Calif.). The results were visualized by chemiluminescence."}, "AR": {"target": "T2, AR (Homo sapiens, UniProt P10275)", "T2 sequence (P10275 1-920)": "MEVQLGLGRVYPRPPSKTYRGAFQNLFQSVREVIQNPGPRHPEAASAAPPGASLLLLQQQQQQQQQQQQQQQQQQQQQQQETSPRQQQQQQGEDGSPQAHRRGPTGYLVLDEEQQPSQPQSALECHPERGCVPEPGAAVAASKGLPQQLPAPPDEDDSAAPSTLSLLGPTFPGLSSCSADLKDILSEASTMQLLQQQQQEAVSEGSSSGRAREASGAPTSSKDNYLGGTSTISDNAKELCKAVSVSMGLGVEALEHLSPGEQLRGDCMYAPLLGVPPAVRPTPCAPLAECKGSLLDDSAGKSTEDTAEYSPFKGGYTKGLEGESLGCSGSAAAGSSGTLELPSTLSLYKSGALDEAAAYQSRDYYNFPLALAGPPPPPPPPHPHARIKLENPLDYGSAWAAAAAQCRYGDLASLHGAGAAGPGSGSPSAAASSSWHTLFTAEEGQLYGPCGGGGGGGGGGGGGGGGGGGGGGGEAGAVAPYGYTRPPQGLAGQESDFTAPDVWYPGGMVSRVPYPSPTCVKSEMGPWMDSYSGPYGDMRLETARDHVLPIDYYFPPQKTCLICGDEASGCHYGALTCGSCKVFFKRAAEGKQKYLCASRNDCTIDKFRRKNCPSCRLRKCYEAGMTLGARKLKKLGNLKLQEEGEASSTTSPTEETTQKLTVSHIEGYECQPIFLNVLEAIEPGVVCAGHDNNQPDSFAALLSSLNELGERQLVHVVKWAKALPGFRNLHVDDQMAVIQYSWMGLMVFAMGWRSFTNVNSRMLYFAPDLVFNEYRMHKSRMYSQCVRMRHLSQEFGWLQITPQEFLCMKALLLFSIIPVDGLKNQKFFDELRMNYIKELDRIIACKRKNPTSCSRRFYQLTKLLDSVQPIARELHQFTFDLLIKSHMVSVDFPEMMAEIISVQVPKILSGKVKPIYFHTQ", "assay": "AR/DHT mediated PSA transcriptional activity (luciferase reporter) in DU145 cells", "format": "cell-based", "conditions": "1 μM of HF, 1 nM DHT, DU145 cells cotransfected with AR"}, "[3]": {"tested_on": "MAP kinase in CWR22 cells", "assay": "Immunoblot of phospho-ERK1/2 in CWR22 cells", "format": "cell-based, human", "conditions": "15 mins"}, "cyclin D1": {"tested_on": "cyclin D1", "assay": "Western blot of cyclin D1 and cell cycle related gene products in DU145 cells", "format": "cell-based, human", "method": "as §1"}}, "data": [{"smiles": "CC(C)(O)C(=O)Nc1ccc([N+](=O)[O-])c(C(F)(F)F)c1", "note": "[HF, hydroxyflutamide]", "values": [{"measurement": "induction of cyclin D1 promoter (−1745D1-Luc) activity", "setting": "[1]", "value": "about 2 fold"}, {"measurement": "autophosphorylation of EGFR", "setting": "EGFR", "value": "causes the autophosphorylation of EGFR"}, {"measurement": "Raf detected in the Ras immunocomplex", "setting": "[2]", "value": "detected"}, {"measurement": "DHT induced PSA-Luc activity", "setting": "AR", "value": "represses DHT induced PSA-Luc activity"}, {"measurement": "MAP kinase activation", "setting": "[3]", "value": "activates MAP kinase"}, {"measurement": "cyclin D1 expression", "setting": "cyclin D1; HF (1 μM) or EGF (10 ng/ml) for 12 hours after serum starvation", "value": "induced"}, {"measurement": "other cell cycle related gene products (p27, p21, Ki67, PCNA)", "setting": "cyclin D1; after HF- or EGF-treatment", "value": "no significant change"}]}]}
